# Values of other authors, collected in PubChem BioAssay AID1259409 (Chemical Carcinogenesis Research Information System (CCRIS), 2018).
# System: rodent chemically induced tumor inhibition, incidence and multiplicity
# Experiment: CCRIS tumor inhibitor studies
# Details: Carcinogen: PHENACETIN, 62-44-2, N-BUTYL-N-(4-HYDROXYBUTYL)NITROSAMINE, 3817-11-6, Carcinogen: PHENACETIN, 62-44-2, N-BUTYL-N-(4-HYDROXYBUTYL)NITROSAMINE, 3817-11-6, Dose [Inhibitor]: 0, Route [Inhibitor]: SUBCUTANEOUS, Species: MOUSE, Strain/Sex: NON/SHI/MALE, Promoter: NONE USED
structure (smiles),measurement,setting,value
CC[C@H](C)[C@@H](NC(=O)[C@@H](CCC(=O)O)NC(=O)[C@@H](CO)NC(=O)[C@@H](CO)NC(=O)[C@H](NC(=O)[C@@H](CC(=O)O)NC(=O)[C@H](NC(=O)[C@H](C)NC(=O)[C@H](C)NC(=O)[C@@H](CC(=O)O)NC(=O)[C@@H](CO)NC(=O)[C@H](N)CS)C(C)C)C(C)C)C(=O)N[C@@H](C(=O)N[C@@H](C(=O)N[C@H](CCCCN)C(=O)N[C@H](CC(=O)O)C(=O)N[C@H](CC(C)C)C(=O)N[C@H](CCCCN)C(=O)N[C@H](CCC(=O)O)C(=O)N[C@H](CCCCN)C(=O)N[C@H](CCCCN)C(=O)N[C@H](CCC(=O)O)C(=O)N[C@@H](C(=O)N[C@@H](C(=O)N[C@H](CCC(=O)O)C(=O)N[C@H](CCC(=O)O)C(=O)N[C@@H](C)C(=O)N[C@H](CCC(=O)O)C(=O)O)C(C)C)C(C)C)C(C)C)[C@H](C)O,"tumour outcome (control, treated, inhibition, significance)","60 UG IN 0.1 ML SALINE 2/WK FOR 6 WK CONCURRENTLY WITH BBN TREATMENT (STUDY DURATION: 34 WK), Target Tissue: Type of Lesion: URINARY BLADDER: CARCINOMA, Dose [Carcinogen]: 2% PHENACETIN IN DIET FOR 12 WK FOLLOWED BY 0.05% BBN IN DRINKING WATER FOR 6 WK","7/20 (35%), 5/19 (26%), 26%, not significant"
same,"tumour outcome (control, treated, inhibition, significance)","60 UG IN 0.1 ML SALINE 2/WK FOR 16 WK BEGINNING POST CARCINOGEN TREATMENT (STUDY DURATION: 30 WK), Target Tissue: Type of Lesion: RENAL PELVIS: CARCINOMA, Dose [Carcinogen]: 2% PHENACETIN IN DIET FOR 8 WK FOLLOWED BY 0.05% BBN IN DRINKING WATER FOR 6 WK","2/11 (18%), 8/12 (67%), -272%, not significant"
same,"tumour outcome (control, treated, inhibition, significance)","60 UG IN 0.1 ML SALINE 2/WK FOR 16 WK BEGINNING POST CARCINOGEN TREATMENT (STUDY DURATION: 30 WK), Target Tissue: Type of Lesion: URINARY BLADDER: CARCINOMA, Dose [Carcinogen]: 2% PHENACETIN IN DIET FOR 8 WK FOLLOWED BY 0.05% BBN IN DRINKING WATER FOR 6 WK","2/11 (18%), 3/12 (25%), -39%, not significant"
same,"tumour outcome (control, treated, inhibition, significance)","60 UG IN 0.1 ML SALINE 2/WK FOR 16 WK BEGINNING POST CARCINOGEN TREATMENT (STUDY DURATION: 34 WK), Target Tissue: Type of Lesion: RENAL PELVIS: CARCINOMA, Dose [Carcinogen]: 2% PHENACETIN IN DIET FOR 12 WK FOLLOWED BY 0.05% BBN IN DRINKING WATER FOR 6 WK","9/20 (45%), 10/18 (56%), -24%, not significant"
same,"tumour outcome (control, treated, inhibition, significance)","60 UG IN 0.1 ML SALINE 2/WK FOR 16 WK BEGINNING POST CARCINOGEN TREATMENT (STUDY DURATION: 34 WK), Target Tissue: Type of Lesion: URINARY BLADDER: CARCINOMA, Dose [Carcinogen]: 2% PHENACETIN IN DIET FOR 12 WK FOLLOWED BY 0.05% BBN IN DRINKING WATER FOR 6 WK","7/20 (35%), 4/18 (22%), 37%, not significant"
same,"tumour outcome (control, treated, inhibition, significance)","60 UG IN 0.1 ML SALINE 2/WK FOR 22 WK BEGINNING POST PHENACETIN TREATMENT (STUDY DURATION: 30 WK), Target Tissue: Type of Lesion: RENAL PELVIS: CARCINOMA, Dose [Carcinogen]: 2% PHENACETIN IN DIET FOR 8 WK FOLLOWED BY 0.05% BBN IN DRINKING WATER FOR 6 WK","2/11 (18%), 2/12 (17%), 5%, not significant"
same,"tumour outcome (control, treated, inhibition, significance)","60 UG IN 0.1 ML SALINE 2/WK FOR 22 WK BEGINNING POST PHENACETIN TREATMENT (STUDY DURATION: 30 WK), Target Tissue: Type of Lesion: URINARY BLADDER: CARCINOMA, Dose [Carcinogen]: 2% PHENACETIN IN DIET FOR 8 WK FOLLOWED BY 0.05% BBN IN DRINKING WATER FOR 6 WK","2/11 (18%), 1/12 (8%), 56%, not significant"
same,"tumour outcome (control, treated, inhibition, significance)","60 UG IN 0.1 ML SALINE 2/WK FOR 22 WK BEGINNING POST PHENACETIN TREATMENT (STUDY DURATION: 34 WK), Target Tissue: Type of Lesion: RENAL PELVIS: CARCINOMA, Dose [Carcinogen]: 2% PHENACETIN IN DIET FOR 12 WK FOLLOWED BY 0.05% BBN IN DRINKING WATER FOR 6 WK","9/20 (45%), 13/19 (68%), -51%, not significant"
same,"tumour outcome (control, treated, inhibition, significance)","60 UG IN 0.1 ML SALINE 2/WK FOR 22 WK BEGINNING POST PHENACETIN TREATMENT (STUDY DURATION:34 WK), Target Tissue: Type of Lesion: URINARY BLADDER: CARCINOMA, Dose [Carcinogen]: 2% PHENACETIN IN DIET FOR 12 WK FOLLOWED BY 0.05% BBN IN DRINKING WATER FOR 6 WK","7/20 (35%), 7/19 (37%), -6%, not significant"
